From patent US7291641B2, “Derivatives of heterocycles with 5 members, their preparation and their use as medicaments” (Societe de Conseils de Recherches et d'Applications …, priority 1999, dated 2007)
Where a name gives a salt, the structure may show the parent alone.

SMILES | melting point [°C]
CCCCOC(=O)NCCc1nc(-c2ccc(-c3ccc(Br)cc3)cc2)c[nH]1 [Example 281, 4-bromo-4′-(2-{2-[(butoxycarbonyl)amino]ethyl}-1H-imidazol-4-yl)-1,1′-biphenyl] | 166
O=C(NCCc1nc(-c2ccc(N3CCCC3)cc2)c[nH]1)OCc1ccccc1 [Example 390, benzyl 2-[4-(4-pyrrolidin-1-ylphenyl)-1H-imidazol-2-yl]ethylcarbamate] | 122.4
CCC[C@@H](N)c1nc(-c2ccccc2)c[nH]1 (as salt: hydrochloride) [Example 211, (1R)-1-(4-phenyl-1H-imidazol-2-yl)-1-butanamine] | 182 to 184
N[C@H](c1nc(-c2ccc(F)c(F)c2)c[nH]1)C1CCCCC1 (as salt: hydrochloride) [Example 258, (S)-cyclohexyl[4-(3,4-difluorophenyl)-1H-imidazol-2-yl]-methanamine] | 222 to 223
CC(C)(C)OC(=O)N[C@@H](Cc1c[nH]c2ccccc12)c1nc(-c2ccccc2)c(-c2ccccc2)[nH]1 [Example 147, tert-butyl (1S)-1-(4,5-diphenyl-1H-imidazol-2-yl)-2-(1H-indol-3-yl)ethylcarbamate] | 142 to 143
CCCOC(=O)NCCc1nc(-c2ccc(-c3ccccc3)cc2)c[nH]1 [Example 245, 4-(2-{2-[(propoxycarbonyl)amino]ethyl}-1H-imidazol-4-yl)-1,1′-biphenyl] | 141.2
CCC[C@@H](NC(=O)OC(C)(C)C)c1nc(-c2ccc(-c3ccccc3)cc2)c[nH]1 [Example 208, 4-(2-{(1R)-1-[(tert-butoxycarbonyl)amino]butyl}-1H-imidazol-4-yl)-1,1′-biphenyl] | 145.6
COCCOC(=O)NCCc1nc(-c2ccc(-c3ccccc3)cc2)c[nH]1 [Example 288, 4-[2-(2-{[(2-methoxyethoxy)carbonyl]amino}ethyl)-1H-imidazol-4-yl]-1,1′-biphenyl] | 123.3
CC(C)(C)CCOC(=O)NCCc1nc(-c2ccc(-c3ccccc3)cc2)c[nH]1 [Example 383, 3,3-dimethylbutyl 2-[4-(1,1′-biphenyl-4-yl)-1H-imidazol-2-yl]ethylcarbamate] | 98.4
CNCc1nc(-c2ccc(-c3ccccc3)cc2)c[nH]1 (as salt: hydrochloride) [Example 155, (4-[1,1′-biphenyl]-4-yl-1H-imidazol-2-yl)-N-methylmethanamine] | 218 to 220
Brc1cccc(-c2c[nH]c([C@@H](NCC3CCCCC3)C3CCCCC3)n2)c1 [Example 289, (S)-1-[4-(3-bromophenyl)-1H-imidazol-2-yl]-1-cyclohexyl-N-(cyclohexylmethyl)methanamine] | 134.3
CCCCOC(=O)NCCc1nc(-c2ccc(-c3cccc([N+](=O)[O-])c3)cc2)c[nH]1 [Example 459, butyl 2-[4-(3′-nitro-1,1′-biphenyl-4-yl)-1H-imidazol-2-yl]ethylcarbamate] | 100.5 to 101.5
CCCCCCC(N)c1nc(-c2cccc(OC)c2)c[nH]1 (racemic) (as salt: hydrochloride) [Example 69, (R,S)-1-[4-(3-methoxyphenyl)-1H-imidazol-2-yl]heptylamine] | 110 to 112
CN(Cc1ccccc1)Cc1nc(-c2cc(C(C)(C)C)c(O)c(C(C)(C)C)c2)cs1 [Example 7, 4-(2-{[benzyl(methyl)amino]methyl}-1,3-thiazol-4-yl)-2,6-di(tert-butyl)phenol] | 165 to 170
CCCCOC(=O)NCCc1nc(-c2ccc(-c3ccc(F)c(Cl)c3)cc2)c[nH]1 [Example 447, butyl 2-[4-(3′-chloro-4′-fluoro-1,1′-biphenyl-4-yl)-1H-imidazol-2-yl]ethylcarbamate] | 132.4
CCCCOC(=O)NCCc1nc(-c2ccc(-c3cccc(Cl)c3)cc2)c[nH]1 [Example 443, butyl 2-[4-(3′-chloro-1,1′-biphenyl-4-yl)-1H-imidazol-2-yl]ethylcarbamate] | 142.6
CCCCCCC(N)c1nc(-c2ccc(Cl)c(Cl)c2)c[nH]1 (racemic) (as salt: hydrochloride) [Example 231, (R,S)-1-[4-(3,4-dichlorophenyl)-1H-imidazol-2-yl]-1-heptanamine] | 148 to 150
CCCCOC(=O)NCCc1nc(-c2ccc(-c3ccc(F)cc3)cc2)c[nH]1 [Example 392, butyl 2-[4-(4′-fluoro-1,1′-biphenyl-4-yl)-1H-imidazol-2-yl]ethylcarbamate] | 149.3
CCCCCCC(NC(=O)OC(C)(C)C)c1nc(-c2ccccc2OC)c[nH]1 (racemic) [Example 183, tert-butyl (R,S)-1-[4-(2-methoxyphenyl)-1H-imidazol-2-yl]heptylcarbamate] | 64 to 65
CCC[C@@H](NC(=O)OC(C)(C)C)c1nc(-c2ccccc2)c[nH]1 [Example 207, tert-butyl (1R)-1-(4-phenyl-1H-imidazol-2-yl)butylcarbamate] | 156 to 158
c1ccc(-c2ccc(-c3c[nH]c(CCNC4CCCCC4)n3)cc2)cc1 [Example 249, N-[2-(4-[1,1′-biphenyl]4-yl-1H-imidazol-2-yl)ethyl]-cyclohexanamine] | 207 to 210

SMILES | melting point [°C]
CCCCCCC(NC1CCCCC1)c1nc(-c2ccc(-c3ccccc3)cc2)c[nH]1 (racemic) (as salt: hydrochloride) [Example 252, (R,S)-N-[1-(4-[1,1′-biphenyl]-4-yl-1H-imidazol-2-yl)heptyl]-cyclohexanamine] | 168 to 170
N[C@H](Cc1c[nH]c2ccccc12)c1nc(-c2ccccc2)c(-c2ccccc2)[nH]1 (as salt: hydrochloride) | > 260
NC1(c2nc(-c3ccccc3)c[nH]2)CCCCC1 (as salt: hydrochloride) | 202 to 204
CCCCCCC(N)c1nc(-c2ccc(N(CC)CC)cc2)c[nH]1 (racemic) (as salt: hydrochloride) [Example 218, (R,S)-4-[2-(1-aminoheptyl)-1H-imidazol-4-yl]-N,N-diethylaniline] | 192
N[C@H](CCc1ccccc1)c1nc(-c2ccc(-c3ccccc3)cc2)c[nH]1 (as salt: hydrochloride) [Example 166, (1R)-1-(4-[1,1′-biphenyl]-4-yl-1H-imidazol-2-yl)-3-phenyl-1-propanamine] | 215 to 218
O=C(NCCc1nc(-c2ccc(-c3ccccc3)cc2)c[nH]1)OC1CCCC1 [Example 271, 4-[2-(2-{[(cyclopentyloxy)carbonyl]amino}ethyl)-1H-imidazol-4-yl]-1,1′-biphenyl] | 140.5
CCCCOC(=O)NCCc1nc(-c2ccc(-c3ccc(SC)cc3)cc2)c[nH]1 [Example 397, butyl 2-{4-[4′-(methylthio)-1,1′-biphenyl-4-yl]-1H-imidazol-2-yl}ethylcarbamate] | 167.9
CCN(CC)c1ccc(-c2c[nH]c([C@@H](N)C3CCCCC3)n2)cc1 (as salt: hydrochloride) [Example 310, 4-{2-[(S)-amino(cyclohexyl)methyl]-1H-imidazol-4-yl}-N,N-diethylaniline] | 216 to 217
CCCCCCC(NCc1ccccc1)c1nc(-c2cccc(Br)c2)c[nH]1 (racemic) (as salt: acetate) [Example 193, (R,S)-N-benzyl-1-[4-(3-bromophenyl)-1H-imidazol-2-yl]-1-heptanamine] | 115 to 116
CC(C)CCCC(NCc1ccccc1)c1nc(-c2cccc(Br)c2)c[nH]1 (racemic) [Example 235, (R,S)-N-benzyl-1-[4-(3-bromophenyl)-1H-imidazol-2-yl]-5-methyl-1-hexanamine] | 92 to 94
CCCCCCC(N)c1nc(-c2ccc(F)cc2)c[nH]1 (racemic) (as salt: hydrochloride) [Example 220, (R,S)-1-[4-(4-fluorophenyl)-1H-imidazol-2-yl]-1-heptanamine] | 148 to 150
CCCCOC(=O)NCCc1nc(-c2ccc(-c3cccc(F)c3F)cc2)c[nH]1 [Example 455, butyl 2-[4-(2′,3′-difluoro-1,1′-biphenyl-4-yl)-1H-imidazol-2-yl]ethylcarbamate] | 90
c1ccc(-c2c[nH]c([C@@H](NCC3CC3)C3CCCCC3)n2)cc1 (as salt: hydrochloride) [Example 267, (S)-cyclohexyl-N-(cyclopropylmethyl)(4-phenyl-1H-imidazol-2-yl)methanamine] | 151 to 152
CCCCOC(=O)NCc1nc(-c2ccc(-c3ccccc3)cc2)c[nH]1 [Example 78, butyl (4-[1,1′-biphenyl]-4-yl-1H-imidazol-2-yl)methylcarbamate] | 130 to 132
c1ccc(CNCCc2nc(-c3ccc(-c4ccccc4)cc3)c[nH]2)cc1 [Example 164, N-benzyl-2-(4-[1,1′-biphenyl]-4-yl-1H-imidazol-2-yl)ethanamine] | 174 to 176
CC[C@H](NC(=O)OC(C)(C)C)c1nc(-c2ccc(-c3ccccc3)cc2)c[nH]1 [Example 194, 4-(2-{(1S)-1-[(tert-butoxycarbonyl)amino]propyl}-1H-imidazol-4-yl)-1,1′-biphenyl] | 138 to 140
CNCc1nc(-c2ccccc2)c(-c2ccccc2)[nH]1 (as salt: hydrochloride) [Example 162, (4,5-diphenyl-1H-imidazol-2-yl)-N-methylmethanamine] | 198 to 200
Fc1ccc(-c2c[nH]c([C@@H](CC3CCCCC3)NC3CCCCC3)n2)cc1 [Example 309, N-{(1R)-2-cyclohexyl-1-[4-(4-fluorophenyl)-1H-imidazol-2-yl]ethyl}cyclohexanamine] | 217 to 218
CCCCOC(=O)NCCc1nc(-c2ccc(-c3cc(F)cc(F)c3)cc2)c[nH]1 [Example 457, butyl 2-[4-(3′,5′-difluoro-1,1′-biphenyl-4-yl)-1H-imidazol-2-yl]ethylcarbamate] | 111.1
c1ccc(-c2c[nH]c([C@@H](NC3CCCCC3)C3CCCCC3)n2)cc1 [Example 243, N-[(S)-cyclohexyl(4-phenyl-1H-imidazol-2-yl)methyl]-cyclohexanamine] | 240 to 242
